The source of these data is US20070053866A1, “IN-CAN AND DRY COATING ANTIMICROBIAL COMPOSITIONS HAVING HYDROXY ANALOGS OF METHIONINE AND DERIVATIVES” (NOVUS INTERNATIONAL INC., priority 2005, published 2007).

Assay [1] deals with Penicillium and Aspergilus sp. Kind of assay: Dry-film alkyd paint mold and mildew resistance in environmental chamber (ASTM D 3273-94, ASTM D 3274-95). It counts as cell-based. Particulars: scale of 1 to 10, 10 being totally free of growth; for ASTM Rating: Three months of continuous alkyd paint testing in the environmental chamber; for ASTM RATING Mean: One month in the environmental chamber, added at 1% to alkyd paint. The procedure:
Accelerated testing of biocides in paints is conducted using environmental chambers maintained at constant high humidity (85-88% relative humidity) and temperature (30-33° C.). The chamber was primed with spores of Penicillium and Aspergilus sp. to accelerate the formation of fungal organisms. Wood panels are coated with the experimental paints and placed inside the chamber for a period of 4-12 weeks. The relative resistance of the paint to the mold and mildew inside the chamber was evaluated subjectively from a scale of 1 to 10, with 10 being totally free of growth. This test is described in more detail in ASTM D 3273-94 and ASTM D 3274-95.
Paint preservatives listed in table 5 below were added at 1% to alkyd paint formulations. HMTBA-Zn is a zinc metal chelate as described above; HMTBA-Cu is a copper metal chelate as described above; HMTBA-Mn is a manganese metal chelate as described above; BIOX-S is 6-ethoxy-1,2-dihydro-2,2,4-trimethylquinoline; BIOX-A is 88 wt. % HMTBA; BIOX-ASL contains 35 wt. % of 2-hydroxy-4-methylthio butanoic acid (88%), 45 wt. % of formic acid, 10 wt. % phosphoric acid and 10 wt. % lactic acid; and BIOX-EZ/7030 contains 70 wt. % of 6-ethoxy-1,2-dihydro-2,2,4-trimethylquinoline and 30 wt. % of HMTBA-Zn metal chelate. Troy663 is a positive control.

Assay [2] has as its system Pseudomonas aeruginosa ATCC 10145 and Enterobacter aerogenes ATCC 13048. Kind of assay: In-can paint preservation: bacterial resistance rating of inoculated water borne paint. Details: key: 0: no bacterial recovery; trace of contamination (1 to 9 colonies); 2: light contamination (10 to 99 colonies); 3: moderate contamination (>100 distinct colonies); 4: heavy contamination (continuous smear of growth). It counts as cell-based. The protocol:
Paint preservatives listed in the tables below were added at the listed concentrations to water borne paint formulations. BIOX-ASL contains 35 wt. % of 2-hydroxy-4-methylthio butanoic acid (88%), 45 wt. % of formic acid, 10 wt. % phosphoric acid and 10 wt. % lactic acid; BIOX-AWD contains 40 wt. % of 2-hydroxy-4-methylthio butanoic acid, 40 wt. % of formic acid and 20 wt. % propionic acid; BIOX-ASDA contains 36.4 wt. % of calcium bis(2-hydroxy-4-methylthiobuanoate), 41.9 wt. % of fumaric acid, 20 wt. % of benzoic acid, 0.9 wt. % flow aid and 0.73 wt. % other additives; HTA and BIOBAN BP30 are commercially available; BIOX-Z is a HMTBA-Zn metal chelate, and BIOX-C is a HMTBA-Cu metal chelate.
The paints were inoculated with Pseudomonas aeruginosaATCC 10145 and Enterobacter aerogenes ATCC 13048 at a level of 0.1% inoculum, and paints were then sampled during the next seven days to determine the number of bacterial colonies surviving in the paint. The efficacy of the added antimicrobial agents were given a numeric rating based on the following system: (0) for no bacterial recovery, (1) for trace of contamination (1 to 9 colonies), (2) for light contamination (10 to 99 colonies), (3) for moderate contamination (>100 distinct colonies) and (4) for heavy contamination (continuous smear of growth).
The paints were then inoculated at a level of 1.0% inoculum and were again sampled during the next seven days to determine the number of bacterial colonies surviving in the paint. These ratings were also plotted versus day after inoculation for each concentration of BIOX-ASL, BIOX-AWD, BIOX-ASDA, and BIOX-C, and are presented in FIGS. 1-4. The minimum inhibitory concentration (MIC) of each BIOX biocide was much lower after one week than those of commercially available products, as shown in FIG. 5.

Where [3] appears, read: Table 1, week 1, 0.1% inoculum, 5 ppm in water borne paint.
Where [4] appears, read: Table 1, week 1, 0.1% inoculum, 25 ppm in water borne paint.
Setting [5] is: Table 2, week 2, 1.0% inoculum, 5 ppm in water borne paint.
[6] abbreviates: Table 2, week 2, 1.0% inoculum, 25 ppm in water borne paint.
[7] abbreviates: Table 3, Week 1: 0.1% Inoculum, sample at 1.0%.
[8] abbreviates: Table 3, Week 2: 1.0% Inoculum, sample at 1.0%.
[9] abbreviates: Table 4, Week 1: 0.1% Inoculum, sample at 1.0% (Bioban BP30: concentration not given).
The mark [10] stands for this setting: Table 4, Week 2: 1.0% Inoculum, sample at 1.0%.

For `[Cu+2].[O-]n1ccccc1=S.[O-]n1ccccc1=S` [COPPER OMADINE, reference compound], the “ASTM Rating” value in assay [1] amounted to 9.2 ± 0.4.
As to `CSCCC(O)C(=O)[O-].CSCCC(O)C(=O)[O-].[Mn+2]` (stereo not drawn) [HMTBA-Mn], the “ASTM RATING Mean” value in assay [1] was found to be 7.8.
For the compound `c1cc[n+]2c(c1)[S][Zn-2]1([O]2)[O][n+]2ccccc2[S]1` [ZINC-OMADINE, reference compound], the “ASTM Rating” value in assay [1] amounted to 8.3 ± 0.8.
Take `CSCCC(O)C(=O)O` (stereo not drawn) [BIOX-A, 2-hydroxy-4(methylthio)butanoic acid]: the “ASTM RATING Mean” value in assay [1] is given as 9.2.
For `CSCCC(O)C(=O)[O-].CSCCC(O)C(=O)[O-].[Cu+2]` (stereo not drawn) [BIOX-C, copper 2-hydroxy-4-methylthiobutanoate chelate], in assay [2] (setting [3]), the “Bacteria Resistance Rating, Before Inoculation” value is recorded as 0; the “Bacteria Resistance Rating, Day 1” value is 0; the “Bacteria Resistance Rating, Day 2” value is 0; the “Bacteria Resistance Rating, Day 5” value stood at 0. In assay [2] (setting [3]), the “Bacteria Resistance Rating, Day 7” value was found to be 0 and the “Bacteria Resistance Rating, Initial Inoculation” value was determined as 4. Further, in assay [2] (setting [4]), the “Bacteria Resistance Rating, Before Inoculation” value is 0; the “Bacteria Resistance Rating, Day 1” value was 0; the “Bacteria Resistance Rating, Day 2” value is 0; the “Bacteria Resistance Rating, Day 5” value is recorded as 0. For the same compound, in assay [2] (setting [4]), the “Bacteria Resistance Rating, Day 7” value is 0 and the “Bacteria Resistance Rating, Initial Inoculation” value came to 4. Besides, in assay [2] (setting [5]), the “Bacteria Resistance Rating, Before Inoculation” value worked out at 0; the “Bacteria Resistance Rating, Day 1” value is 3 (moderate contamination (>100 distinct colonies)); the “Bacteria Resistance Rating, Day 2” value is given as 1 (trace of contamination (1 to 9 colonies)); the “Bacteria Resistance Rating, Day 5” value amounted to 0. Further, in assay [2] (setting [5]), the “Bacteria Resistance Rating, Day 7” value is recorded as 0 and the “Bacteria Resistance Rating, Initial Inoculation” value is 4. In assay [2] (setting [6]), the “Bacteria Resistance Rating, Before Inoculation” value was determined as 0; the “Bacteria Resistance Rating, Day 1” value was 3 (moderate contamination (>100 distinct colonies)); the “Bacteria Resistance Rating, Day 2” value amounted to 0; the “Bacteria Resistance Rating, Day 5” value was 0. Besides, in assay [2] (setting [6]), the “Bacteria Resistance Rating, Day 7” value was 0 and the “Bacteria Resistance Rating, Initial Inoculation” value came out at 4. In addition, in assay [2] (setting [7]), the “Bacterial Resistance Rating, Day 1” value is reported as 2 (light contamination (10 to 99 colonies)); the “Bacterial Resistance Rating, Day 2” value is listed as 0; the “Bacterial Resistance Rating, Day 5” value is reported as 0; the “Bacterial Resistance Rating, Day 7” value turned out to be 0. In addition, the “Bacterial Resistance Rating, Initial” value in assay [2] (setting [7]) was found to be 4. Besides, in assay [2] (setting [8]), the “Bacterial Resistance Rating, Day 1” value is 0; the “Bacterial Resistance Rating, Day 2” value is 0; the “Bacterial Resistance Rating, Day 5” value is reported as 0; the “Bacterial Resistance Rating, Day 7” value was 0. For the same compound, the “Bacterial Resistance Rating, Initial” value in assay [2] (setting [8]) turned out to be 4. In assay [2] (setting [9]), the “Bacterial Resistance Rating, Day 1” value was found to be 0; the “Bacterial Resistance Rating, Day 2” value is on record as 0; the “Bacterial Resistance Rating, Day 5” value worked out at 0; the “Bacterial Resistance Rating, Day 7” value is recorded as 0. In addition, the “Bacterial Resistance Rating, Initial” value in assay [2] (setting [9]) was determined as 4. In assay [2] (setting [10]), the “Bacterial Resistance Rating, Day 1” value turned out to be 0; the “Bacterial Resistance Rating, Day 2” value is reported as 0; the “Bacterial Resistance Rating, Day 5” value stood at 0; the “Bacterial Resistance Rating, Initial” value was found to be 4. In addition, in assay [1], the “ASTM RATING Mean” value stood at 9.3 and the “ASTM Rating” value turned out to be 9.0 ± 0.6.
`CSCCC(O)C(=O)[O-].CSCCC(O)C(=O)[O-].[Zn+2]` (stereo not drawn) [BIOX-Z]: in assay [2] (setting [7]), the “Bacterial Resistance Rating, Day 1” value amounted to 0; the “Bacterial Resistance Rating, Day 2” value is reported as 0; the “Bacterial Resistance Rating, Day 5” value turned out to be 0; the “Bacterial Resistance Rating, Day 7” value is reported as 0. Besides, in assay [2] (setting [7]), the “Bacterial Resistance Rating, Initial” value stood at 4. In addition, in assay [2] (setting [8]), the “Bacterial Resistance Rating, Day 1” value is given as 1 (trace of contamination (1 to 9 colonies)); the “Bacterial Resistance Rating, Day 2” value came out at 0; the “Bacterial Resistance Rating, Day 5” value is recorded as 0; the “Bacterial Resistance Rating, Day 7” value stood at 0. Besides, the “Bacterial Resistance Rating, Initial” value in assay [2] (setting [8]) is listed as 4. Moreover, in assay [2] (setting [9]), the “Bacterial Resistance Rating, Day 1” value was 1 (trace of contamination (1 to 9 colonies)); the “Bacterial Resistance Rating, Day 2” value worked out at 0; the “Bacterial Resistance Rating, Day 5” value is listed as 0; the “Bacterial Resistance Rating, Day 7” value is recorded as 0. The “Bacterial Resistance Rating, Initial” value in assay [2] (setting [9]) is given as 4. Also, in assay [2] (setting [10]), the “Bacterial Resistance Rating, Day 1” value is reported as 1 (trace of contamination (1 to 9 colonies)); the “Bacterial Resistance Rating, Day 2” value is 0; the “Bacterial Resistance Rating, Day 5” value is listed as 0; the “Bacterial Resistance Rating, Initial” value worked out at 4. Besides, in assay [1], the “ASTM RATING Mean” value was 8.7.
Regarding `C1N2CN3CN1CN(C2)C3` [HTA, reference compound], in assay [2] (setting [7]), the “Bacterial Resistance Rating, Day 1” value was 4; the “Bacterial Resistance Rating, Day 2” value came to 4; the “Bacterial Resistance Rating, Day 5” value was 4; the “Bacterial Resistance Rating, Day 7” value came out at 4. Also, in assay [2] (setting [7]), the “Bacterial Resistance Rating, Initial” value came out at 4.
Regarding `CCOc1ccc2c(c1)C(C)=CC(C)(C)N2` [BIOX-S, 6-ethoxy-1,2-dihydro-2,2,4-trimethylquinoline], the “ASTM RATING Mean” value in assay [1] was 9.2.
